“And” between values parts separate entries of the source, which are not always exact repeats. Equal values may be shown once. Toxic doses and inconclusive results are not listed. Cut-off read from the data, not from the text of the source: active = T/C of 150% or more; inactive = T/C below 125%.
System: L1210 leukemia ip in BDF1 mice, survival T/C
Assay: NCI In Vivo Anticancer Drug Screen. Data for tumor model L1210 Leukemia (intraperitoneal) in B6D2F1 (BDF1) mice
Conditions: endpoint: mean survival time, higher = longer survival
How it was run: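 Transplantable tumor model; survival measured in treated vs vehicle control mice. Value = treated/control.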

[1] = dose: 100.0 mg/kg/injection, schedule: Q01DX009 (ip), vehicle: saline
[2] = dose: 200.0 mg/kg/injection, schedule: Q01DX009 (ip), vehicle: saline
[3] = dose: 400.0 mg/kg/injection, schedule: Q01DX009 (ip), vehicle: saline
[4] = dose: 100.0 mg/kg/injection, schedule: Q04DX002 (ip), vehicle: Klucel (hydroxypropylcellulose) (HPC)
[5] = dose: 200.0 mg/kg/injection, schedule: Q04DX002 (ip), vehicle: Klucel (hydroxypropylcellulose) (HPC)
[6] = dose: 100.0 mg/kg/injection, schedule: Q04DX003 (ip), vehicle: Klucel (hydroxypropylcellulose) (HPC)
[7] = dose: 50.0 mg/kg/injection, schedule: Q04DX003 (ip), vehicle: saline with Tween-80
[8] = dose: 100.0 mg/kg/injection, schedule: Q04DX003 (ip), vehicle: saline with Tween-80
[9] = dose: 200.0 mg/kg/injection, schedule: Q04DX003 (ip), vehicle: saline with Tween-80
[10] = dose: 400.0 mg/kg/injection, schedule: Q04DX003 (ip), vehicle: saline with Tween-80
[11] = dose: 100.0 mg/kg/injection, schedule: Q01DX001 (ip), vehicle: saline
[12] = dose: 150.0 mg/kg/injection, schedule: Q01DX001 (ip), vehicle: saline
[13] = dose: 200.0 mg/kg/injection, schedule: Q01DX001 (ip), vehicle: saline
[14] = dose: 100.0 mg/kg/injection, schedule: Q01DX009 (ip), vehicle: saline with Tween-80
[15] = dose: 200.0 mg/kg/injection, schedule: Q01DX009 (ip), vehicle: saline with Tween-80
[16] = dose: 400.0 mg/kg/injection, schedule: Q01DX009 (ip), vehicle: saline with Tween-80
[17] = dose: 50.0 mg/kg/injection, schedule: Q01DX009 (ip), vehicle: saline with Tween-80
[18] = dose: 75.0 mg/kg/injection, schedule: Q01DX001 (ip), vehicle: saline

Measured: T/C

O=S(=O)(O)CCCN1CCCCC1
inactive: [1] 107 % of control | [2] 112 % of control | [3] 98 % of control

Cc1ccc(S(=O)(=O)N/N=C2/CC3CCCCCCC23)cc1 (stereo unspecified)
inactive: dose: 50.0 mg/kg/injection, schedule: Q04DX002 (ip), vehicle: Klucel (hydroxypropylcellulose) (HPC) 104 % of control | [4] 97 % of control | [5] 111 % of control

CC(=O)C(C#N)c1ccccc1 (stereo unspecified)
inactive: dose: 25.0 mg/kg/injection, schedule: Q01DX009 (ip), vehicle: Klucel (hydroxypropylcellulose) (HPC) 98 % of control | dose: 25.0 mg/kg/injection, schedule: Q04DX003 (ip), vehicle: Klucel (hydroxypropylcellulose) (HPC) 100 % of control | dose: 50.0 mg/kg/injection, schedule: Q01DX009 (ip), vehicle: Klucel (hydroxypropylcellulose) (HPC) 96 % of control | dose: 50.0 mg/kg/injection, schedule: Q04DX003 (ip), vehicle: Klucel (hydroxypropylcellulose) (HPC) 100 % of control | [6] 97 % of control

C[CH2][Ge]([Cl])([CH2]C)[CH2]C
inactive: [7] 99 % of control

O=S(=O)(CCl)Nc1ccccn1
inactive: dose: 100.0 mg/kg/injection, schedule: Q01DX009 (ip), vehicle: other 96 % of control | dose: 100.0 mg/kg/injection, schedule: Q04DX003 (ip), vehicle: other 106 % of control | dose: 200.0 mg/kg/injection, schedule: Q01DX009 (ip), vehicle: other 103 % of control | dose: 200.0 mg/kg/injection, schedule: Q04DX003 (ip), vehicle: other 108 % of control | dose: 400.0 mg/kg/injection, schedule: Q01DX009 (ip), vehicle: other 102 % of control | dose: 400.0 mg/kg/injection, schedule: Q04DX003 (ip), vehicle: other 100 % of control

CC1CC(C)(C)N=C(C(Cc2ccc(Br)cc2)c2ccccc2)O1 (stereo unspecified)
inactive: [8] 97 % of control | [9] 92 % of control | [10] 95 % of control

OC(CCl)C(O)C(O)C(O)CCl (stereo unspecified)
inactive: dose: 44.0 mg/kg/injection, schedule: Q01DX001 (ip), vehicle: saline 103 % of control | dose: 66.0 mg/kg/injection, schedule: Q01DX001 (ip), vehicle: saline 103 % of control | dose: 100.0 mg/kg/injection, schedule: Q01DX001 (ip), vehicle: saline with Tween-80 95 % of control | [11] 103 % of control | [12] 96 % of control | dose: 200.0 mg/kg/injection, schedule: Q01DX001 (ip), vehicle: saline with Tween-80 92 % of control | [13] 101 % of control | dose: 400.0 mg/kg/injection, schedule: Q01DX001 (ip), vehicle: saline with Tween-80 89 % of control | dose: 400.0 mg/kg/injection, schedule: Q01DX001 (ip), vehicle: saline 97 % of control

Clc1ccc(Cl)c(N=NNc2cc(Cl)ccc2Cl)c1
inactive: [14] 101 % of control | [8] 98 % of control | [15] 101 % of control | [9] 101 % of control | [16] 103 % of control | [10] 96 % of control

O=C(O)c1cccc(Br)c1[N+](=O)[O-]
inactive: [11] 97 % of control | [13] 101 % of control

CCCCC(I)C(C)(C)[n+]1ccccc1 (stereo unspecified)
inactive: dose: 12.5 mg/kg/injection, schedule: Q01DX009 (ip), vehicle: saline with Tween-80 119 % of control | dose: 12.5 mg/kg/injection, schedule: Q04DX003 (ip), vehicle: saline with Tween-80 100 % of control | dose: 25.0 mg/kg/injection, schedule: Q01DX009 (ip), vehicle: saline with Tween-80 106 % of control | dose: 25.0 mg/kg/injection, schedule: Q04DX003 (ip), vehicle: saline with Tween-80 96 % of control | [17] 101 % of control | [7] 100 % of control

OC1C2c3ccccc3C(c3ccccc32)C1O (stereo unspecified)
inactive: [18] 107 % of control | [12] 93 % of control | dose: 300.0 mg/kg/injection, schedule: Q01DX001 (ip), vehicle: saline 99 % of control

c1ccc(-c2cc3ccccc3[nH]2)nc1
inactive: [6] 95 % of control | dose: 200.0 mg/kg/injection, schedule: Q04DX003 (ip), vehicle: Klucel (hydroxypropylcellulose) (HPC) 93 % of control | dose: 400.0 mg/kg/injection, schedule: Q04DX003 (ip), vehicle: Klucel (hydroxypropylcellulose) (HPC) 93 % of control

C#CC(C)(O)c1ccccc1 (stereo unspecified)
inactive: dose: 100.0 mg/kg/injection, schedule: Q01DX009 (ip), vehicle: Klucel (hydroxypropylcellulose) (HPC) 98 % of control | dose: 200.0 mg/kg/injection, schedule: Q01DX009 (ip), vehicle: Klucel (hydroxypropylcellulose) (HPC) 98 % of control

CCCCC(CC)C1OCCS1 (stereo unspecified)
inactive: [1] 96 % of control | dose: 100.0 mg/kg/injection, schedule: Q04DX002 (ip), vehicle: saline 96 % of control | [2] 107 % of control | dose: 200.0 mg/kg/injection, schedule: Q04DX002 (ip), vehicle: saline 92 % of control | [3] 104 % of control | dose: 400.0 mg/kg/injection, schedule: Q04DX002 (ip), vehicle: saline 99 % of control

O=C(Nc1ccc(Cl)cc1Cl)OCCOc1ccc([N+](=O)[O-])cc1
inactive: [17] 102 % of control | [14] 98 % of control | [15] 93 % of control

CC(=O)Nc1ccc(S(=O)(=O)Nc2cc(C)c(C)cc2C)cc1
inactive: [4] 103 % of control | [5] 91 % of control

CC(C)C(Cl)C(=O)O (stereo unspecified)
inactive: [18] 96 % of control | [12] 104 % of control

CC(C)CC([NH-])C(=O)O.CC(C)CC([NH-])C(=O)O.CC(C)CC([NH-])C(=O)O.[Co+3] (stereo unspecified)
inactive: dose: 12.5 mg/kg/injection, schedule: Q01DX009 (ip), vehicle: water 106 % of control | dose: 25.0 mg/kg/injection, schedule: Q01DX009 (ip), vehicle: water 95 % of control | dose: 50.0 mg/kg/injection, schedule: Q01DX009 (ip), vehicle: water 98 % of control and 104 % of control | dose: 100.0 mg/kg/injection, schedule: Q01DX009 (ip), vehicle: water 117 % of control | dose: 100.0 mg/kg/injection, schedule: Q04DX003 (ip), vehicle: water 107 % of control and 98 % of control | dose: 200.0 mg/kg/injection, schedule: Q01DX009 (ip), vehicle: water 111 % of control | dose: 200.0 mg/kg/injection, schedule: Q04DX003 (ip), vehicle: water 110 % of control and 112 % of control | dose: 400.0 mg/kg/injection, schedule: Q04DX003 (ip), vehicle: water 102 % of control

OC(CC(O)(C(F)(F)F)C(F)(F)F)c1ccccc1 (stereo unspecified)
inactive: [8] 103 % of control | [9] 96 % of control | [10] 97 % of control

O=S1(=O)CCCC1C(Cl)c1ccccc1 (stereo unspecified)
inactive: dose: 50.0 mg/kg/injection, schedule: Q01DX001 (ip), vehicle: Klucel (hydroxypropylcellulose) (HPC) 92 % of control | dose: 100.0 mg/kg/injection, schedule: Q01DX001 (ip), vehicle: Klucel (hydroxypropylcellulose) (HPC) 97 % of control

Cc1c(Cl)cccc1NC(=O)N1CCCC(C)C1 (stereo unspecified)
inactive: [14] 94 % of control and 90 % of control | dose: 100.0 mg/kg/injection, schedule: Q04DX002 (ip), vehicle: saline with Tween-80 96 % of control and 89 % of control | [8] 96 % of control | [15] 90 % of control | dose: 200.0 mg/kg/injection, schedule: Q04DX002 (ip), vehicle: saline with Tween-80 86 % of control and 89 % of control | [9] 102 % of control | [16] 93 % of control and 95 % of control | dose: 400.0 mg/kg/injection, schedule: Q04DX002 (ip), vehicle: saline with Tween-80 93 % of control and 89 % of control | [10] 97 % of control

CC1(c2cccc3ccccc23)OCC2(CCCCC2)CO1
inactive: dose: 81.3 mg/kg/injection, schedule: Q01DX009 (ip), vehicle: DMSO 109 % of control | dose: 100.0 mg/kg/injection, schedule: Q04DX003 (ip), vehicle: DMSO 92 % of control | dose: 200.0 mg/kg/injection, schedule: Q04DX003 (ip), vehicle: DMSO 90 % of control | dose: 400.0 mg/kg/injection, schedule: Q04DX003 (ip), vehicle: DMSO 95 % of control
